Test systems include T-47D breast; SN12C renal; MOLT-4 leukemia; MDA-MB-435; BT-549 breast; MCF7 breast; DMS 273 small cell lung; DLD-1 colon; M19-MEL melanoma; LXFL 529 NSCLC.
What all share (test): inhibition of tumour cell growth, NCI panel, 48 h

The structures appear in SMILES notation. “And” between values parts separate entries of the source, which are not always exact repeats. Equal values may be shown once.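 96-well plates; 48 h exposure; 5 concentrations. Endpoints by linear interpolation between flanking doses. Not reached: highest tested concentration assigned. Abbreviation: GI50, concentration required for 50% inhibition of growth. TGI marks complete inhibition of growth.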

In the case of `O=C(/C=C/c1ccccc1O)CC(=O)/C=C/c1ccccc1O`, the TGI in the assay on T-47D breast was over 31.6 µM; in the assay on SN12C renal, 20.6 µM; with MOLT-4 leukemia it was over 31.6 µM; in the assay on MDA-MB-435, over 31.6 µM; with BT-549 breast it was 45.7 µM; in the assay with MCF7 breast, 7.61 µM.

On to `C=CC[n+]1c(/C=C2\Sc3ccccc3N2C)sc(-c2ccccc2)c1-c1ccccc1`, for which the GI50 in the assay with T-47D breast was 0.242 µM; in the assay with SN12C renal it was 0.298 µM; in the assay on MOLT-4 leukemia, 0.431 µM; in the assay with MDA-MB-435 it was 0.335 µM; with BT-549 breast it was 0.296 µM; in the assay on MCF7 breast it was 0.286 µM. The TGI in the assay with T-47D breast is 0.782 µM; in the assay with SN12C renal it was 1.47 µM; in the assay with MOLT-4 leukemia, 4.29 µM; with MDA-MB-435, 1.68 µM; with BT-549 breast it was 0.907 µM; in the assay with MCF7 breast it was 1.77 µM.

Regarding `O=C1C=Cc2cc3ccccc3c3cccc1c23`, the GI50 in the assay on T-47D breast is 21.2 µM; in the assay with SN12C renal, 2.71 µM; in the assay with MOLT-4 leukemia, 5.03 µM; in the assay on MDA-MB-435, 16.3 µM; in the assay on BT-549 breast, 9.66 µM; in the assay with MCF7 breast, 5.26 µM. In addition, the TGI in the assay with T-47D breast was over 100 µM; with SN12C renal, 11.3 µM; with MOLT-4 leukemia, over 100 µM; in the assay on MDA-MB-435, 70.7 µM; in the assay with BT-549 breast, 51.9 µM; with MCF7 breast, 37.7 µM.

In the case of `Nc1ncnc2c1ncn2C1OC(CO)C(O)C1O` (stereo not given), the GI50 was 0.738 µM in the assay on T-47D breast; 16 µM in the assay on SN12C renal; > 100 µM and 201 µM in the assay on MOLT-4 leukemia; 38.8 µM with MDA-MB-435; 7.69 µM with BT-549 breast. In addition, the TGI with T-47D breast was > 100 µM and 13.5 µM; in the assay on SN12C renal, > 100 µM and 393 µM and 97.6 µM; in the assay on MOLT-4 leukemia, over 450 µM; in the assay on DMS 273 small cell lung, over 450 µM; with MDA-MB-435 it was over 100 µM; in the assay with DLD-1 colon, over 450 µM. The TGI in the assay with BT-549 breast was 59 µM; in the assay on M19-MEL melanoma it was over 450 µM.

For the compound `COc1ccc2c(c1)Cc1cc(N=[N+]([O-])c3ccc4c(c3)Cc3cc(OC)ccc3-4)ccc1-2`, the TGI in the assay on T-47D breast was over 100 µM; in the assay with SN12C renal it was over 100 µM; with MOLT-4 leukemia it was over 100 µM; with MDA-MB-435, over 100 µM; in the assay on BT-549 breast, over 100 µM; in the assay on MCF7 breast, 64.4 µM.

For `CN1CCN(c2nc(NCCNc3ccnc4cc(Cl)ccc34)c3ccccc3n2)CC1`, the GI50 with T-47D breast is 1.94 µM; in the assay on SN12C renal, 2.03 µM; in the assay with MOLT-4 leukemia it was 1.63 µM; in the assay on MDA-MB-435, 1.85 µM; in the assay with BT-549 breast it was 3.49 µM; in the assay with MCF7 breast it was 1 µM. The TGI is 4.79 µM with T-47D breast; 5.6 µM in the assay with SN12C renal; 6.36 µM with MOLT-4 leukemia; 3.61 µM in the assay on MDA-MB-435; 12.8 µM with BT-549 breast; 13.9 µM in the assay with MCF7 breast.

As for `O=c1cc(N2CCOCC2)oc2c(-c3ccccc3)cccc12`, the GI50 in the assay with T-47D breast was 3.03 µM; in the assay on SN12C renal it was 2.93 µM; with MOLT-4 leukemia, 5.46 µM; with MDA-MB-435, 4.23 µM; with BT-549 breast, 1.79 µM. Further, the TGI with T-47D breast was 48.7 µM and 8.31 µM; in the assay on SN12C renal, over 100 µM; in the assay with MOLT-4 leukemia, > 100 µM and 92.8 µM; in the assay on MDA-MB-435, 31.1 µM and 37.2 µM; in the assay on BT-549 breast it was > 19.8 µM and 76.2 µM; in the assay on MCF7 breast it was > 57 µM and 16.1 µM.

For the compound `Oc1ccc(Br)cc1CN1CCN(Cc2ccc(Cl)cc2)CC1`, the GI50 is 8.9 µM with T-47D breast; 27.1 µM in the assay on SN12C renal; 26.7 µM in the assay on MOLT-4 leukemia; 20.8 µM in the assay on MDA-MB-435; 38.2 µM in the assay with BT-549 breast; 18.4 µM in the assay with MCF7 breast. Further, the TGI with T-47D breast was over 100 µM; with SN12C renal, over 100 µM; in the assay on MOLT-4 leukemia it was over 100 µM; with MDA-MB-435, 90.4 µM; in the assay on BT-549 breast, over 100 µM; with MCF7 breast, 94.3 µM.

In the case of `CC(C)=CCNc1ncnc2c1ncn2C1OC(COP(=O)(O)O)C(O)C1O` (stereo not given), the GI50 was 4.96 µM with T-47D breast; 3.94 µM in the assay on SN12C renal; 4.22 µM in the assay on MOLT-4 leukemia; 6.68 µM in the assay with MDA-MB-435; 2.43 µM in the assay on BT-549 breast; 1.72 µM in the assay on MCF7 breast. Besides, the TGI in the assay with T-47D breast was 25.4 µM; in the assay with SN12C renal, over 100 µM; with MOLT-4 leukemia it was over 48.5 µM; with MDA-MB-435, over 100 µM; in the assay with BT-549 breast it was 6.81 µM; with MCF7 breast, over 91.3 µM.

`CC1=NN(C(=O)CC(=O)Nc2ccccc2)C(=O)C1N=Nc1ccc(S(N)(=O)=O)cc1` (stereo not given): the TGI with SN12C renal, with MOLT-4 leukemia, in the assay on DMS 273 small cell lung, with DLD-1 colon and with LXFL 529 NSCLC was over 100 µM each time.

Consider `COc1cc(Oc2cnc3cc(N)cc(N)c3n2)cc(OC)c1OC`, for which the GI50 in the assay on T-47D breast was 33.5 µM; with SN12C renal it was 71.2 µM; in the assay on MOLT-4 leukemia, 20.2 µM; with MDA-MB-435 it was 24.3 µM; in the assay with BT-549 breast it was 43.5 µM; in the assay on MCF7 breast, 35.4 µM. Moreover, the TGI in the assay on T-47D breast is over 100 µM; in the assay on SN12C renal, over 100 µM; in the assay on MOLT-4 leukemia, 51.9 µM; with MDA-MB-435, 59.1 µM; in the assay with BT-549 breast, over 100 µM; in the assay with MCF7 breast, over 100 µM.

`CC(=N\O)/C(C)=N/O.CC(=N\O)/C(C)=N/O.[Pd]`: the GI50 was 6.19 µM in the assay with T-47D breast; 8.65 µM in the assay with SN12C renal; over 10 µM in the assay with MOLT-4 leukemia; 2.64 µM in the assay on MDA-MB-435; 8.49 µM with BT-549 breast; 4.98 µM in the assay on MCF7 breast. Moreover, the TGI in the assay on T-47D breast was over 10 µM; in the assay on SN12C renal it was over 10 µM; with MOLT-4 leukemia it was over 10 µM; with MDA-MB-435 it was 5.43 µM; in the assay on BT-549 breast, over 10 µM; with MCF7 breast, over 10 µM.
